Test results reported in US12036194B1, “Methods of administering solriamfetol to lactating women” (Axsome Malta Ltd., priority 2022, dated 2024).
Where a name gives a salt, the structure may show the parent alone. Read-outs that look alike come from different tables or passages of the source.

What was measured:
[1] = Phase 4 open-label single-dose study: pharmacokinetics of solriamfetol in plasma of healthy postpartum women; assay type: in vivo, human; settings: for AUC(0-inf) / AUC(0-t) / Cmax / Vd/F / half-life / Tmax: female, human, po, 150 mg
Experimental: A Phase 4, open-label, single-dose study to evaluate the pharmacokinetics (PK) of solriamfetol in the breast milk and plasma of healthy postpartum women following oral administration of a 150 mg solriamfetol tablet.
The study was conducted in 6 healthy adult lactating women who were between 15 and 37 weeks postpartum and were administered a single oral dose of SUNOSI 150 mg. SUNOSI was excreted in breast milk with a milk to plasma AUC ratio of approximately 2:1. […] The average amount that would be passed to the infant was estimated to be 0.59 mg over 24 hours, which is about 4.0% of the maternal dose on a weight-adjusted basis. The data from the lactation study indicate that SUNOSI is transferred to breastmilk in nursing mothers, with the relative infant dose (RID) is approximately 4% of the maternal weight-adjusted dosage. Data to assess the effects of SUNOSI on a breastfed infant or on milk production is not provided. The developmental and health benefits of breastfeeding should be considered along with the mother's clinical need for SUNOSI and any potential adverse effects on the breastfed child from SUNOSI or from the underlying maternal condition. Breastfed infants should be monitored for adverse reactions, such as agitation, insomnia, anorexia, and reduced weight gain.
On Day −1, eligible subjects underwent the baseline procedures. On Day 1, 2 hours after a light breakfast, subjects were to receive a single dose of solriamfetol 150 mg with 240 mL of water. Subjects had to fast for approximately 4 hours after the first dose; water was allowed except for 1 hour before and 1 hour after dosing with the study drug.
Pharmacokinetic analysis of breast milk obtained from both breasts (by pumping) was evaluated prior to dose administration and at intervals up to 72 hours postdose. Blood samples were also collected for plasma solriamfetol quantitation and PK analysis predose and at timepoints up to 72 hours postdose. Solriamfetol breast milk and plasma concentrations were measured using validated bioanalytical methods. Safety was assessed throughout the study by 12-lead ECG, vital sign measurements, the Columbia-Suicide Severity Rating Scale (C-SSRS), and the incidence of adverse events (AE).
Blood samples for plasma PK evaluation were collected at the following time points: Predose, 1, 1.5, 3, 6, 8.5, 10, 13, 15, 21, 24, 28, 36, 44, and 72 hours following dosing on Day 1. General study methodology is outlined in Table 6.
Serial blood samples (4 mL) were collected and dispensed into labeled K2EDTA tubes. The actual time of blood collection for all samples was recorded on the eCRF. Solriamfetol concentration in breast milk and plasma were determined using a validated bioanalytical method (LC-MS/MS) at Origin Bioanalytical Laboratory. The analytical range (lower limit of quantitation [LLOQ] to upper limit of quantitation) for plasma solriamfetol was 8.42 to 4210.00 ng/mL, and breast milk solriamfetol was 10.0 to 8000 ng/mL.
Pharmacokinetic parameters were derived with Phoenix® WinNonlin® Version 8.3 (Certara, Inc., Princeton, New Jersey, USA) and/or SAS© Version 9.4 (SAS Institute, Inc., Cary, North Carolina, USA).
Pharmacokinetic concentrations and parameters were summarized using descriptive statistics, including n, arithmetic mean, SD, coefficient of variation (CV %), median, min, max, Geometric mean (Geo-mean) and the geometric coefficient of variation (Geo-CV %). For the PK parameter tmax, only n, median, minimum, and maximum was presented.

[2] = Sunosi label, cited from earlier work
[3] = rats; breast milk; cited from earlier work
[4] = single oral 150 mg solriamfetol tablet, N = 6
[5] = single oral 150 mg solriamfetol tablet, N = 6, hydrochloride
[6] = single oral 150 mg solriamfetol tablet, N = 6, listed as solriamfetol, hydrochloride
[7] = healthy male and female patients not postpartum

NC(=O)OC[C@H](N)Cc1ccccc1 [Solriamfetol, (R)-2-amino-3-phenylpropyl carbamate (APC) hydrochloride]
AUC(0-inf) ([1]; single oral 150 mg solriamfetol tablet, N = 6, read-out: AUC0-inf, Geometric Mean): 6340 ng·h/mL | AUC(0-t) ([1]; single oral 150 mg solriamfetol tablet, N = 6, read-out: AUC0-t, Arithmetic Mean (CV %)): 6440 ng·h/mL | AUC(0-t) ([1]; single oral 150 mg solriamfetol tablet, N = 6, read-out: AUC0-t, Geometric Mean): 6240 ng·h/mL | Cmax ([1]; single oral 150 mg solriamfetol tablet, N = 6, read-out: Cmax, Arithmetic Mean (CV %)): 905 ng/mL | Cmax ([1]; single oral 150 mg solriamfetol tablet, N = 6, read-out: Cmax, Geometric Mean): 892 ng/mL | Vd/F ([1]; single oral 150 mg solriamfetol tablet, N = 6, read-out: Vz/F, Arithmetic Mean (CV %)): 169 L | Vd/F ([1]; single oral 150 mg solriamfetol tablet, N = 6, read-out: Vz/F, Geometric Mean): 162 L | half-life ([1]; single oral 150 mg solriamfetol tablet, N = 6, read-out: t1/2, Arithmetic Mean (CV %) (converted)): 288 min | half-life ([1]; single oral 150 mg solriamfetol tablet, N = 6, read-out: t1/2, Geometric Mean (converted)): 285 min | Tmax ([1]; single oral 150 mg solriamfetol tablet, N = 6, read-out: tmax, Median (min, max)): 1.25 h | AUC(0-inf) ([1]; single oral 150 mg solriamfetol tablet, healthy postpartum women N = 6, read-out: AUC0-inf, Arithmetic Mean (CV %)): 6540 ng·h/mL | half-life ([1]; single oral 150 mg, read-out: t1/2 (approximate) (converted)): ~300 min | Tmax ([1]; single oral 150 mg, read-out: tmax range): 1 to 3 h | CL/F, Geometric Mean [1, 4]: 23.66 L/h | Lambda_z, Arithmetic Mean (CV %) [1, 4]: 0.1478 (19.1) 1/h | Lambda_z, Geometric Mean [1, 4]: 0.1459 h⁻¹ | CL/F, Arithmetic Mean (CV %) [1, 5]: 24.40 (26.8) L/h | t1/2, Arithmetic Mean (CV %) [1, 5]: 4.804 (15.2) h | CL/F, Arithmetic Mean (CV %) [1, 6]: 24.40 L/h | tmax, Median (min, max) [1, 6]: 1 h | apparent mean elimination plasma half-life [2, 7]: 7.1 h | oral bioavailability [2, 7]: approximately 95% | median Tmax of peak plasma concentration ([2]; post-dose under fasted conditions, not postpartum): 2 h | solriamfetol milk concentrations versus plasma concentrations [3]: higher than
